Test results from publication PMC4627284, “High-throughput simultaneous screen and counterscreen identifies homoharringtonine as synthetic lethal with von Hippel-Lindau loss in renal cell carcinoma” (Oncotarget, 2015).
Where two headings read alike, the source gives them in different places.

Experiments:
[1] = Pharmacokinetic analysis after a single dose by oral gavage; type: in vivo, NOD/SCID mice; conditions: for AUC(0-inf) / Cmax / Tmax / half-life / Vd/F: female, NOD/SCID, mouse, plasma; for half-life: read-out: Terminal t½ (converted); for Vd/F: read-out: Vz/F
Experimental: We evaluated PK parameters after administration of a single dose of HHT by oral gavage to mice of 0.4 mg/kg, 0.7 mg/kg and 2 mg/kg (Table 1). […] Treatment with 0.4 mg/kg HTT by gavage most closely approximated human exposures. […] Given our in vitro studies, we sought to sustain 50 nM drug levels and mice were dosed with 0.7 mg/kg HHT given by gavage twice daily.
Female NOD/SCID mice (6-7 weeks) were administered homoharringtonine (HHT) by oral gavage. DMSO was used to wet the compound which was subsequently diluted in normal saline (pH 7.2) prior to administration (final DMSO < 5%). Animals were sacrificed in duplicate by inhalation overdose of CO2 at varying times post-dose and bled by cardiac puncture using acidified citrate dextrose (ACD) as the anticoagulant. Plasma was isolated after centrifugation at 9,600 x g for 10 minutes at 4°C. Protein was precipitated from 100 μl of plasma with 100 μl of acetonitrile containing 100 ng/ml of n-benzylbenzamide, which was used as an internal standard (IS), and 0.2% formic acid. After extensive vortexing, samples were incubated for 10 minutes at RT and spun twice at 16,100 x g for 5 minutes. The supernatant was evaluated by LC-MS/MS using a Shimadzu (Columbia, MD) Prominence LC coupled to an AB Sciex (Framingham, MA) 3200 Qtrap mass spectrometer. Extraction conditions were optimized prior to PK analysis for efficient and reproducible recovery over a three log range of concentrations. Analytical standards and quality control samples were prepared in a similar fashion by spiking commercial CD-1 mouse plasma (Bioreclamation, Westbury, NY) with known quantities of HHT. Chromatography conditions were as follows: an Agilent (Santa Clara, CA) C18 XDB, 5 micron packing, 50 × 4.6 mm size column was used for reverse phase chromatography. Buffer A consisted of dH2O + 0.1% formic acid and Buffer B consisted of methanol + 0.1% formic acid. Gradient conditions utilized were: 0.01-1.0 min 3% B, 1.0-1.5 min gradient to 100% B,1.5-3.0 min 100% B, 3.0-3.1 min gradient to 3% B, 3.1-4.1 min 3% B. HHT was detected as the 546.3 to 298.3 transition, and the IS (n-benzylbenzamide) as the 212.1 to 91.1 transition. Data were analyzed using Analyst software (AB Sciex.) A value 3x above the signal obtained in the blank plasma was designated as the limit of detection (LOD). The limit of quantitation (LOQ) was defined as the lowest concentration on the standard curve at which back calculation yielded a concentration within 20% of the theoretical value and above the LOD signal. The LOQ for HHT was 0.5 ng/ml. Pharmacokinetic properties were evaluated using the noncompartmental analysis tool in WinNonlin (Certara, Corp., St. Louis, MO). Sparse sampling was used for data analysis. Terminal half-life was calculated as the ln(2)/λz where λz is a first order rate constant associated with the terminal (log-linear) portion of the curve. It is estimated by linear regression of time vs. log concentration by the software for three or more of the final nonzero data points. Tmax (time to maximal drug concentration) and Cmax (maximal drug concentration) were determined by visual inspection. Area under the concentration time curve (AUCinf) from time 0 to infinity was determined by linear trapezoidal analysis. Apparent Volume of Distribution (Vz/F) is based on the terminal phase and is calculated as Dose/λz*AUCinf while Apparent Clearance (CL/F) is calculated as Dose/AUCinf. Calculation of Absolute Vz and CL requires knowledge of oral bioavailability (F) which is calculated as AUCoral/AUCiv X Dose iv/Doseoral but was not determined here because an IV PK was not performed.

[2] = system: XP144 tumorgraft line; experiment: ccRCC tumorgraft model, line XP144; type: in vivo, NOD/SCID mice; conditions: 0.7 mg/kg by gavage twice daily
Experimental: (§1) We selected 6 independently-derived ccRCC tumorgraft lines that were confirmed to have VHL mutation. The mice (3-5 mice per tumorgraft line) were treated with either HHT (0.7 mg/kg), vehicle (as a negative control), or rapamycin (0.5 mg/kg; as a positive control). In total, 65 tumorgraft bearing mice were evaluated for these experiments in time courses lasting ~28 days, with tumor growth measured every 3 or 4 days.
(§2) Figure 3 HHT inhibits tumor growth in a ccRCC tumorgraft model A-F, Tumorgraft lines were treated with vehicle control, HHT (0.7 mg/kg), rapamycin (0.5 mg/kg), (or the combination, where indicated) and tumor growth was measured on the indicated days. Day 0 represents the first day of treatment.
Tumorgrafts were generated and propagated as described previously, with tumor samples implanted subcutaneously into the flank of the mouse for drug trials. Briefly, 4- to 8-week-old NOD/SCID mice were anesthetized with isoflurane and implanted subcutaneously with 64 mm^3 tumor fragments (cohorts 2-20). Once tumors reached an average of at least ~250 mm^3, drug treatment was begun. […] Tumor size (volume) was measured twice weekly and was obtained by multiplying tumor length, width, and depth using calipers. To assess toxicity, mouse weight was monitored once weekly.

[3] = set-up: method as in PMID 3598625; conditions: cited from earlier work
[4] = system: VHL-mutant patient-derived ccRCC tumorgraft lines; experiment: ccRCC tumorgraft model, six VHL-mutant tumorgraft lines; type: in vivo, NOD/SCID mice
Experimental: as §1, §2
Tumorgrafts were generated and propagated as described previously, with tumor samples implanted subcutaneously into the flank of the mouse for drug trials. Briefly, 4- to 8-week-old NOD/SCID mice were anesthetized with isoflurane and implanted subcutaneously with 64 mm^3 tumor fragments (cohorts 2-20). Once tumors reached an average of at least ~250 mm^3, drug treatment was begun. The mice were treated with vehicle, 0.7 mg/kg homoharringtonine (HHT) via gavage twice daily, or 0.5 mg/kg rapamycin given by IP injection once every 48 hours. Tumor size (volume) was measured twice weekly and was obtained by multiplying tumor length, width, and depth using calipers. To assess toxicity, mouse weight was monitored once weekly.
Sections from tumors were stained with hematoxylin and eosin (H&E) as described previously.

With COC(=O)C[C@](O)(CCCC(C)(C)O)C(=O)O[C@@H]1C(OC)=C[C@]23CCCN2CCc2cc4c(cc2[C@H]13)OCO4 [HHT, homoharringtonine] the Cl/F ([1]; 0.4 mg/kg oral gavage, mice) was 32.7 mL/h, the Cl/F ([1]; 0.7 mg/kg oral gavage, mice) was 30.5 mL/h and the “time HHT concentrations above 50 nM were sustained” value ([1]; 0.7 mg/kg oral gavage, mice, 50 nM equivalent to 27.3 ng/mL) was ~ 6 hours. It also gave a Cl/F ([1]; 2 mg/kg oral gavage, mice) of 46.6 mL/h, an AUC(0-inf) ([1]; 0.4 mg/kg oral gavage, mice) of 251 ng·h/mL and a Cmax ([1]; 0.4 mg/kg oral gavage, mice) of 28.8 ng/mL. For the same compound, the Tmax ([1]; 0.4 mg/kg oral gavage, mice) was 0.17 h, the half-life ([1]; 0.4 mg/kg oral gavage, mice) was 1.86 h and the Vd/F ([1]; 0.4 mg/kg oral gavage, mice) was 0.0877 L. For the same compound, the AUC(0-inf) ([1]; 0.7 mg/kg oral gavage, mice) was 440 ng·h/mL, the Cmax ([1]; 0.7 mg/kg oral gavage, mice) was 57.8 ng/mL and the Tmax ([1]; 0.7 mg/kg oral gavage, mice) was 0.17 h. For the same compound, the half-life ([1]; 0.7 mg/kg oral gavage, mice) was 2.8 h, the Vd/F ([1]; 0.7 mg/kg oral gavage, mice) was 0.123 L and the AUC(0-inf) ([1]; 2 mg/kg oral gavage, mice) was 905 ng·h/mL. For the same compound, the Cmax ([1]; 2 mg/kg oral gavage, mice) was 97.2 ng/mL, the Tmax ([1]; 2 mg/kg oral gavage, mice) was 1.5 h and the half-life ([1]; 2 mg/kg oral gavage, mice) was 6.74 h. The Vd/F ([1]; 2 mg/kg oral gavage, mice) was 0.453 L, the “time at which Cmax was reached” value ([1]; two lower doses (0.4 and 0.7 mg/kg), first time point sampled) was 10 min and the “tumor weight smaller than vehicle-treated” value [2] was 32%. The “tumor growth inhibition (tumor volume) vs vehicle” value ([2]; ~28 days) was 43.0%, the blood-brain barrier penetration [3] was “penetrates the blood-brain barrier” and the “tumorgraft lines with tumor growth inhibited” value ([4]; 0.7 mg/kg by gavage twice daily, lines responding / lines tested) was 2/6. The “synergistic effects with rapamycin in the tumorgrafts” value ([4]; HHT 0.7 mg/kg plus rapamycin 0.5 mg/kg) was “did not observe synergistic effects” and the “histology of harvested tumors (H&E)” value ([4]; XP26 and XP144 cohorts) was “induced tumor cell necrosis”.
